Assays:
[1] = Oral bioavailability in rat; assay type: ADME, organism-based; conditions: in vivo
[2] = Apparent permeability across apical to basolateral side and basolateral to apical side in human Caco-2 cells at 5 uM measured up to 60 mins by LC-MS/MS analysis; assay type: ADME, cell-based

Row | SMILES | bioavailability [1] | Papp at 1 h, 5 µM [2]
1 | COc1ccc2c(c1OCc1ccccc1)CC(C(=O)O)N(C(=O)C(c1ccccc1)c1ccccc1)C2 (centres undefined) | 33% | –
2 | CCCCOC(=O)NS(=O)(=O)c1sc(CC(C)C)cc1-c1cccc(Cn2ccnc2)c1 | – | 3.4 ×10⁻⁶ cm/s
3 | CCCCOC(=O)NS(=O)(=O)c1sc(CC(C)C)cc1-c1cccc(C(=O)Cn2cnc3cc(C)c(C)cc32)c1 | – | 0.4 ×10⁻⁶ cm/s
4 | COc1ccc2c(c1OCc1ccccc1)C[C@@H](C(=O)O)N(C(=O)C(c1ccccc1)c1ccccc1)C2 [OLODANRIGAN] | – | 1.8 ×10⁻⁶ cm/s
